Values of other authors, collected in patent publication US9968546B2, “Topical composition for skin treatment to reduce lines and wrinkles of the face and body using a dual DNA repair mechanism to address damage caused by aging and ultra-violet induced damage to the skin with combination of skin turgor enhancement compounds” (priority 2015, dated 2018).
Values belong to the molecule of their own block, whether it stands above or below them.

Experiments:
melanin synthesis = details: concentration of 0.1%
[1] = clinically, versus regular Vitamin E

Molecule: CCCCCCCCC(CCCCCC)C(=O)OC[C@H](OC(=O)C(CCCCCC)CCCCCCCC)[C@H]1OC(=O)C(OC(=O)C(CCCCCC)CCCCCCCC)=C1OC(=O)C(CCCCCC)CCCCCCCC (stereo partly drawn) [tetrahexyldecyl ascorbate]
8-OHdG induced by UV-A radiation (8-OHdG): decreases
reduction of melanin synthesis (melanin synthesis): 80%
p53 expression induced by UV-B radiation (p53 expression): decreases

Molecule: Tocotrienol
strength and effectiveness at repairing skin damage relative to regular Vitamin E [1]: 40-50 times

tyrosinase-inhibition activity relative to Kojic acid (tyrosinase; versus Kojic acid): 25 times
tyrosinase-inhibition activity relative to ascorbic acid (tyrosinase; versus ascorbic acid): 75 times
Molecule: CC1(C)C=Cc2c(ccc3c2OC[C@@H](c2ccc(O)cc2O)C3)O1 [Glabridin]
